Consider 18 substances from patent publication US7205382B2, “Peptides, the production and use thereof for binding immunoglobulins” (Fresenius Medical Care Affina GmbH, priority 2000, dated 2007).

What all share (format): binding
Holding throughout (design): key: No binding of immunoglobulin for the defined peptide variant, detection negative: 0; Binding of immunoglobulin for the defined peptide variant, detection positive: +

The test system of one test is human IgG-Fc. The test can be described thus: Cellulose-immobilized 13-mer peptide variants incubated with human IgG-Fc, anti-human IgG-AP detection. The settings on record: IgG-Fc 1 μg/ml in blocking buffer, 3 h room temperature. As for the experimental part:
(§1) Peptides consisting of 13 amino acids were synthesized by solid phase synthesis (Houghten, 1985) on a cellulose matrix with (βA)(βA) as a spacer group.
(§2) The immobilized peptides were tested for their immunoglobulin binding capability by incubation with human IgG-Fc in a buffered solution and by incubation with human plasma.
(§3) Thus, the peptide variants immobilized on solid phases were washed with T-TBS buffer (136 mM NaCl, 1.6 mM KCl, 0.05% (v/v) Tween 20, 50 mM Tris-HCl, pH 8.0) and subsequently treated with blocking buffers (5% (w/v) saccharose, 4% (w/v) bovine serum albumin in T-TBS). Incubation of the immobilized peptides with IgG-Fc (1 μg/ml) in blocking buffer and human serum (diluted 1:10,000 in blocking buffer) was effected for 3 h at room temperature. For checking the specificity of the binding, buffered serum albumin solution (blocking buffer) without addition was included as a control. Thereafter, the peptide variants immobilized on the solid phases were washed three more times with T-TBS buffer.
(§4) After incubation with alkaline phosphatase-conjugated anti-human IgG antibody (1.2 μg/ml) in blocking buffer, detection of the immunoglobulin binding was effected by means of NBT (nitroblue tetrazolium chloride)/BCIP (5-bromo-4-chloro-3-indolyl phosphate toluidine salt) as a substrate (200 μl of parent solution (18.75 mg/ml NBT and 9.4 mg/ml BCIP in 67% (v/v) DMSO) in 10 ml developing buffer (100 mM Tris-HCl, 100 mM NaCl, 5 mM MgCl2, pH 9.5)).

For test [1], the system named is immunoglobulins in human plasma. The test can be described thus: Cellulose-immobilized 13-mer peptide variants incubated with human plasma, anti-human IgG-AP detection. The note with it: human plasma as sample, diluted 1:10,000 in blocking buffer, 3 h room temperature. As for the experimental part: as §1, §2, §3, §4
In the next test the test system is serum albumin. The test can be described thus: Cellulose-immobilized 13-mer peptide variants incubated with serum albumin (negative control), anti-human IgG-AP detection. The note with it: blocking buffer without addition, 3 h room temperature. As for the experimental part: as §1, §2, §3, §4

Bridge positions count the residues as written; N and C are the ends. Square brackets hold non-standard residues; d marks the D form. Ends that are not written are not given here. cellulose = not defined here; βAla = NCCC(=O)O

On to “02M: cellulose-bound 13-mer variant DMAWHLGELVWCT-(βA)(βA) (DMAWHLGELVWCT[βAla][βAla]; not fully specified; printed as DMAWHLGELVWCT-(βA)(βA); also: cellulose-bound)”, for which the “Result for incubation with human IgG-Fc (immunoglobulin binding detection)” value (from here on “Result for incubation with human IgG-Fc”) in the test on human IgG-Fc turned out to be 0. Besides, the “Result for incubation with human plasma (immunoglobulin binding detection)” value (from here on “Result for incubation with human plasma”) in test [1] is recorded as 0. For the same substance, in the test on serum albumin, the “Result for incubation with serum albumin (immunoglobulin binding detection)” value (from here on “Result for incubation with serum albumin”) came to 0.

For the substance “08H: cellulose-bound 13-mer variant DCAWHLGHLVWCT-(βA)(βA) (DCAWHLGHLVWCT-{βAla-βAla-cellulose}; disulfide 2-12 (inferred); not fully specified (N-terminus); printed as DCAWHLGHLVWCT-(βA)(βA); reading uncertain)”, the “Result for incubation with human IgG-Fc” value with human IgG-Fc is given as “+”. Also, in test [1], the “Result for incubation with human plasma” value was “+”. Further, the “Result for incubation with serum albumin” value in the test on serum albumin stood at 0.

With “04A: cellulose-bound 13-mer variant DCAAHLGELVWCT-(βA)(βA) (DCAAHLGELVWCT-{βAla-βAla-cellulose}; disulfide 2-12 (inferred); reading uncertain; also: printed as DCAAHLGELVWCT-(βA)(βA))”, the “Result for incubation with human IgG-Fc” value in the test with human IgG-Fc turned out to be 0. In test [1], the “Result for incubation with human plasma” value turned out to be 0. Also, in the test on serum albumin, the “Result for incubation with serum albumin” value is recorded as 0.

As to “04P: cellulose-bound 13-mer variant DCAPHLGELVWCT-(βA)(βA) (disulfide 2-12 (inferred); not fully specified (N-terminus, C-terminus); printed as DCAPHLGELVWCT-(βA)(βA); also: cellulose-bound)”, the “Result for incubation with human IgG-Fc” value in the test on human IgG-Fc was 0. Moreover, the “Result for incubation with human plasma” value in test [1] worked out at 0. Also, in the test with serum albumin, the “Result for incubation with serum albumin” value is recorded as 0.

On to “04I: cellulose-bound 13-mer variant DCAIHLGELVWCT-(βA)(βA) (DCAIHLGELVWCT[βAla][βAla]; disulfide 2-12 (inferred); also: cellulose-bound)”, for which the “Result for incubation with human IgG-Fc” value in the test on human IgG-Fc is on record as “+”. The “Result for incubation with human plasma” value in test [1] is recorded as 0. In addition, the “Result for incubation with serum albumin” value in the test on serum albumin was 0.

Take “08I: cellulose-bound 13-mer variant DCAWHLGILVWCT-(βA)(βA) (DCAWHLGILVWCT-{βAla-βAla-cellulose}; disulfide 2-12 (inferred); not fully specified (N-terminus); printed as DCAWHLGILVWCT-(βA)(βA); reading uncertain)”: the “Result for incubation with human IgG-Fc” value with human IgG-Fc is given as 0. For the same substance, in test [1], the “Result for incubation with human plasma” value is recorded as 0. Moreover, the “Result for incubation with serum albumin” value in the test on serum albumin amounted to 0.

With “05K: cellulose-bound 13-mer variant DCAWKLGELVWCT-(βA)(βA) (disulfide 2-12 (inferred); not fully specified (N-terminus, C-terminus); printed as DCAWKLGELVWCT-(βA)(βA); also: cellulose-bound)”, in the test on human IgG-Fc, the “Result for incubation with human IgG-Fc” value turned out to be 0. The “Result for incubation with human plasma” value in test [1] is reported as 0. In addition, the “Result for incubation with serum albumin” value in the test on serum albumin came to 0.

In the case of “01K: cellulose-bound 13-mer variant KCAWHLGELVWCT-(βA)(βA) (KCAWHLGELVWCT-{βAla-βAla-cellulose}; disulfide 2-12 (inferred); reading uncertain; also: printed as KCAWHLGELVWCT-(βA)(βA))”, in the test on human IgG-Fc, the “Result for incubation with human IgG-Fc” value is on record as “+”. Also, the “Result for incubation with human plasma” value in test [1] turned out to be 0. The “Result for incubation with serum albumin” value with serum albumin is given as 0.

As for “10H: cellulose-bound 13-mer variant DCAWHLGELHWCT-(βA)(βA) (DCAWHLGELHWCT-{βAla-βAla-cellulose}; disulfide 2-12 (inferred); reading uncertain; also: printed as DCAWHLGELHWCT-(βA)(βA))”, the “Result for incubation with human IgG-Fc” value with human IgG-Fc was 0. Besides, the “Result for incubation with human plasma” value in test [1] is 0. Moreover, the “Result for incubation with serum albumin” value in the test on serum albumin amounted to 0.

Regarding “02P: cellulose-bound 13-mer variant DPAWHLGELVWCT-(βA)(βA) (DPAWHLGELVWCT[βAla][βAla]; not fully specified; printed as DPAWHLGELVWCT-(βA)(βA); also: cellulose-bound)”, the “Result for incubation with human IgG-Fc” value in the test with human IgG-Fc was 0. Besides, the “Result for incubation with human plasma” value in test [1] is listed as 0. The “Result for incubation with serum albumin” value in the test on serum albumin is on record as 0.

As to “04S: cellulose-bound 13-mer variant DCASHLGELVWCT-(βA)(βA) (disulfide 2-12 (inferred); not fully specified (N-terminus, C-terminus); printed as DCASHLGELVWCT-(βA)(βA); also: cellulose-bound)”, the “Result for incubation with human IgG-Fc” value in the test on human IgG-Fc is given as “+”. In test [1], the “Result for incubation with human plasma” value is recorded as “+”. Also, in the test on serum albumin, the “Result for incubation with serum albumin” value was 0.

Take “07C: cellulose-bound 13-mer variant DCAWHLCELVWCT-(βA)(βA) (DCAWHLCELVWCT-{βAla-βAla-cellulose}; not fully specified (N-terminus); printed as DCAWHLCELVWCT-(βA)(βA); cysteine pairing not given here; reading uncertain)”: in the test on human IgG-Fc, the “Result for incubation with human IgG-Fc” value was 0. Moreover, in test [1], the “Result for incubation with human plasma” value worked out at 0. Moreover, the “Result for incubation with serum albumin” value with serum albumin came out at 0.

“02F: cellulose-bound 13-mer variant DFAWHLGELVWCT-(βA)(βA) (DFAWHLGELVWCT[βAla][βAla]; not fully specified; printed as DFAWHLGELVWCT-(βA)(βA); also: cellulose-bound)”: in the test on human IgG-Fc, the “Result for incubation with human IgG-Fc” value is listed as 0. Also, in test [1], the “Result for incubation with human plasma” value is reported as 0. For the same substance, the “Result for incubation with serum albumin” value with serum albumin was found to be 0.

Take “06H: cellulose-bound 13-mer variant DCAWHHGELVWCT-(βA)(βA) (DCAWHHGELVWCT-{βAla-βAla-cellulose}; disulfide 2-12 (inferred); not fully specified (N-terminus); printed as DCAWHHGELVWCT-(βA)(βA); reading uncertain)”: the “Result for incubation with human IgG-Fc” value in the test with human IgG-Fc is recorded as “+”. In addition, in test [1], the “Result for incubation with human plasma” value is given as “+”. Also, the “Result for incubation with serum albumin” value in the test on serum albumin was determined as 0.

Consider “09S: cellulose-bound 13-mer variant DCAWHLGESVWCT-(βA)(βA) (DCAWHLGESVWCT-{βAla-βAla-cellulose}; disulfide 2-12 (inferred); reading uncertain; also: printed as DCAWHLGESVWCT-(βA)(βA))”, for which the “Result for incubation with human IgG-Fc” value in the test with human IgG-Fc came to 0. Also, the “Result for incubation with human plasma” value in test [1] was 0. Besides, in the test with serum albumin, the “Result for incubation with serum albumin” value was 0.

Consider “06D: cellulose-bound 13-mer variant DCAWHDGELVWCT-(βA)(βA) (DCAWHDGELVWCT[βAla][βAla]; disulfide 2-12 (inferred); not fully specified (N-terminus); printed as DCAWHDGELVWCT-(βA)(βA); also: cellulose-bound)”, for which the “Result for incubation with human IgG-Fc” value in the test with human IgG-Fc is on record as “+”. Besides, in test [1], the “Result for incubation with human plasma” value was found to be 0. Further, in the test with serum albumin, the “Result for incubation with serum albumin” value is reported as 0.

As for “10L: cellulose-bound 13-mer variant DCAWHLGELLWCT-(βA)(βA) (DCAWHLGELLWCT-{βAla-βAla-cellulose}; disulfide 2-12 (inferred); reading uncertain; also: printed as DCAWHLGELLWCT-(βA)(βA))”, the “Result for incubation with human IgG-Fc” value in the test with human IgG-Fc is listed as 0. Moreover, the “Result for incubation with human plasma” value in test [1] turned out to be 0. Also, the “Result for incubation with serum albumin” value in the test with serum albumin turned out to be 0.

With “01Q: cellulose-bound 13-mer variant QCAWHLGELVWCT-(βA)(βA) (QCAWHLGELVWCT-{βAla-βAla-cellulose}; disulfide 2-12 (inferred); reading uncertain; also: printed as QCAWHLGELVWCT-(βA)(βA))”, in the test with human IgG-Fc, the “Result for incubation with human IgG-Fc” value is “+”. In addition, the “Result for incubation with human plasma” value in test [1] is on record as 0. Also, in the test on serum albumin, the “Result for incubation with serum albumin” value came out at 0.
